Patent publication US20200187502A1, “MICROBIOCIDAL OXADIAZOLE DERIVATIVES” (SYNGENTA PARTICIPATIONS AG, priority 2017, published 2020)

Tests used:
[1] = test system: Puccinia recondita f. Sp. Tritici; assay: Fungicidal activity, wheat leaf disc preventative (brown rust); format: in vivo; conditions: foliar, 200 ppm in the applied formulation, wheat leaf segments cv. Kanzler, compared to untreated control, 7 to 9 days after application, read-out: disease control
How it was run: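 Preventative leaf-segment test: spray application of diluted formulated compound on wheat cv. Kanzler, spore inoculation after 1 day. Percent control relative to untreated segments rated 7 to 9 days post-application, with incubation at 19° C, 75% relative humidity, 12 h photoperiod.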

[2] = test system: Puccinia recondita f. Sp. Tritici; assay: Fungicidal activity, wheat leaf disc curative (brown rust); format: in vivo; conditions: foliar, 200 ppm in the applied formulation, wheat leaf segments cv. Kanzler, curative (applied 1 day after inoculation), compared to untreated control, 6 to 8 days after application, read-out: disease control
How it was run: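 Compounds, prepared from DMSO solutions of at most 10 mg/ml and diluted just before spraying, are applied curatively to inoculated Kanzler wheat leaf segments. Segments are incubated at 19° C and 75% RH in a climate cabinet; disease control relative to untreated is evaluated 6 to 8 days later.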

Phakopsora pachyrhizi = assay: Fungicidal activity, soybean leaf disc preventative (Asian soybean rust); format: in vivo; conditions: foliar, 200 ppm in the applied formulation, soybean leaf disks, compared to untreated control, 12 to 14 days after application, read-out: disease control
Procedure: Leaf disks or leaf segments of various plant species are cut from plants grown in a greenhouse. The cut leaf disks or segments are placed in multiwell plates (24-well format) onto water agar. The leaf disks are sprayed with a test solution before (preventative) or after (curative) inoculation. Compounds to be tested are prepared as DMSO solutions (max. 10 mg/ml) which are diluted to the appropriate concentration with 0.025% Tween20 just before spraying. The inoculated leaf disks or segments are incubated under defined conditions (temperature, relative humidity, light, etc.) according to the respective test system. A single evaluation of disease level is carried out 3 to 14 days after inoculation, depending on the pathosystem. Percent disease control relative to the untreated check leaf disks or segments is then calculated.
Soybean leaf disks are placed on water agar in multiwell plates (24-well format) and sprayed with the formulated test compound diluted in water. One day after application leaf discs are inoculated by spraying a spore suspension on the lower leaf surface. After an incubation period in a climate cabinet of 24-36 hours in darkness at 20° C. and 75% rh leaf disc are kept at 20° C. with 12 h light/day and 75% rh. The activity of a compound is assessed as percent disease control compared to untreated when an appropriate level of disease damage appears in untreated check leaf disks (12 to 14 days after application).
The following compounds at 200 ppm in the applied formulation give at least 80% disease control in this test when compared to untreated control leaf disks under the same conditions, which show extensive disease development.

[3] = test system: Glomerella lacenarium (Colletotrichum lacenarium); assay: Fungicidal activity, liquid culture, cucumber preventative (anthracnose); format: cell-based; conditions: 20 ppm in the applied formulation, liquid culture in PDB, inhibition of growth measured photometrically 3 to 4 days after application, compared to untreated control, read-out: disease control
How it was run: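 Spore-based broth assay: conidia mixed into PDB meet compound from a DMSO solution in 96-well format, incubate at 24° C., then inhibition of growth is determined by photometry 3–4 days later relative to the untreated check.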

O=C(NCc1ccc(-c2noc(C(F)(F)F)n2)s1)C1CCCO1 (centres unmarked) [Compound 3.8, N-[[5-[5-(trifluoromethyl)-1,2,4-oxadiazol-3-yl]-2-thienyl]methyl]tetrahydrofuran-2-carboxamide]
≥ 80%: pest or weed control at 200 ppm [1] | pest or weed control at 200 ppm [2] | pest or weed control at 200 ppm (Phakopsora pachyrhizi) | inhibition of growth at 20 ppm [3]

CCN(Cc1ccc(-c2noc(C(F)(F)F)n2)s1)C(=O)NCCOC [Compound 4.72, 1-ethyl-3-(2-methoxyethyl)-1-[[5-[5-(trifluoromethyl)-1,2,4-oxadiazol-3-yl]-2-thienyl]methyl]urea]
≥ 80%: pest or weed control at 200 ppm [1] | pest or weed control at 200 ppm [2] | pest or weed control at 200 ppm (Phakopsora pachyrhizi) | inhibition of growth at 20 ppm [3]

CCN(Cc1ccc(-c2noc(C(F)(F)F)n2)s1)C(=O)NC [Compound 4.5, 1-ethyl-3-methyl-1-[[5-[5-(trifluoromethyl)-1,2,4-oxadiazol-3-yl]-2-thienyl]methyl]urea]
≥ 80%: pest or weed control at 200 ppm [1] | pest or weed control at 200 ppm [2] | pest or weed control at 200 ppm (Phakopsora pachyrhizi) | inhibition of growth at 20 ppm [3]

CN(Cc1ccc(-c2noc(C(F)(F)F)n2)s1)C(=O)NC1CC1 [Compound 5.6, 3-cyclopropyl-1-methyl-1-[[5-[5-(trifluoromethyl)-1,2,4-oxadiazol-3-yl]-2-thienyl]methyl]urea]
≥ 80%: pest or weed control at 200 ppm [1] | pest or weed control at 200 ppm [2] | pest or weed control at 200 ppm (Phakopsora pachyrhizi) | inhibition of growth at 20 ppm [3]

COCC(=O)NCc1ccc(-c2noc(C(F)(F)F)n2)s1 [Compound 2.3, 2-methoxy-N-[[5-[5-(trifluoromethyl)-1,2,4-oxadiazol-3-yl]-2-thienyl]methyl]acetamide]
≥ 80%: pest or weed control at 200 ppm [1] | pest or weed control at 200 ppm [2] | pest or weed control at 200 ppm (Phakopsora pachyrhizi) | inhibition of growth at 20 ppm [3]

COC(C)C(=O)NCc1ccc(-c2noc(C(F)(F)F)n2)s1 (centres unmarked) [Compound 2.6, 2-methoxy-N-[[5-[5-(trifluoromethyl)-1,2,4-oxadiazol-3-yl]-2-thienyl]methyl]propanamide]
≥ 80%: pest or weed control at 200 ppm [1] | pest or weed control at 200 ppm [2] | pest or weed control at 200 ppm (Phakopsora pachyrhizi) | inhibition of growth at 20 ppm [3]

CN(Cc1ccc(-c2noc(C(F)(F)F)n2)s1)C(=O)C1CCC1 [Compound 5.20, N-methyl-N-[[5-[5-(trifluoromethyl)-1,2,4-oxadiazol-3-yl]-2-thienyl]methyl]cyclobutanecarboxamide]
≥ 80%: pest or weed control at 200 ppm [1] | pest or weed control at 200 ppm [2] | pest or weed control at 200 ppm (Phakopsora pachyrhizi) | inhibition of growth at 20 ppm [3]

CCC(=O)N(Cc1ccc(-c2noc(C(F)(F)F)n2)s1)C1CC1 [Compound 4.56, N-cyclopropyl-N-[[5-[5-(trifluoromethyl)-1,2,4-oxadiazol-3-yl]-2-thienyl]methyl]propanamide]
≥ 80%: pest or weed control at 200 ppm [1] | pest or weed control at 200 ppm [2] | pest or weed control at 200 ppm (Phakopsora pachyrhizi) | inhibition of growth at 20 ppm [3]

C=CCN(C)C(=O)N(Cc1ccc(-c2noc(C(F)(F)F)n2)s1)OC [Compound 1.52, 1-allyl-3-methoxy-1-methyl-3-[[5-[5-(trifluoromethyl)-1,2,4-oxadiazol-3-yl]-2-thienyl]methyl]urea]
≥ 80%: pest or weed control at 200 ppm [1] | pest or weed control at 200 ppm [2] | pest or weed control at 200 ppm (Phakopsora pachyrhizi) | inhibition of growth at 20 ppm [3]

CCNC(=O)N(C)Cc1ccc(-c2noc(C(F)(F)F)n2)s1 [Compound 4.16, 3-ethyl-1-methyl-1-[[5-[5-(trifluoromethyl)-1,2,4-oxadiazol-3-yl]-2-thienyl]methyl]urea]
≥ 80%: pest or weed control at 200 ppm [1] | pest or weed control at 200 ppm [2] | pest or weed control at 200 ppm (Phakopsora pachyrhizi) | inhibition of growth at 20 ppm [3]

CCN(Cc1ccc(-c2noc(C(F)(F)F)n2)s1)C(=O)N(C)CC#N [Compound 4.70, 1-(cyanomethyl)-3-ethyl-1-methyl-3-[[5-[5-(trifluoromethyl)-1,2,4-oxadiazol-3-yl]-2-thienyl]methyl]urea]
≥ 80%: pest or weed control at 200 ppm [1] | pest or weed control at 200 ppm [2] | pest or weed control at 200 ppm (Phakopsora pachyrhizi) | inhibition of growth at 20 ppm [3]

CC(C)C(=O)NCc1ccc(-c2noc(C(F)(F)F)n2)s1 [Compound 2.9, 2-methyl-N-[[5-[5-(trifluoromethyl)-1,2,4-oxadiazol-3-yl]-2-thienyl]methyl]propanamide]
≥ 80%: pest or weed control at 200 ppm [1] | pest or weed control at 200 ppm [2] | pest or weed control at 200 ppm (Phakopsora pachyrhizi) | inhibition of growth at 20 ppm [3]

CN(Cc1ccc(-c2noc(C(F)(F)F)n2)s1)C(=O)C1CC1(F)F (centres unmarked) [Compound 5.24, 2,2-difluoro-N-methyl-N-[[5-[5-(trifluoromethyl)-1,2,4-oxadiazol-3-yl]-2-thienyl]methyl]cyclopropanecarboxamide]
≥ 80%: pest or weed control at 200 ppm [1] | pest or weed control at 200 ppm [2] | pest or weed control at 200 ppm (Phakopsora pachyrhizi) | inhibition of growth at 20 ppm [3]

CCN(CC)C(=O)N(Cc1ccc(-c2noc(C(F)(F)F)n2)s1)OC [Compound 1.54, 1,1-diethyl-3-methoxy-3-[[5-[5-(trifluoromethyl)-1,2,4-oxadiazol-3-yl]-2-thienyl]methyl]urea]
≥ 80%: pest or weed control at 200 ppm [1] | pest or weed control at 200 ppm [2] | pest or weed control at 200 ppm (Phakopsora pachyrhizi) | inhibition of growth at 20 ppm [3]

CCC(=O)N(Cc1ccc(-c2noc(C(F)(F)F)n2)s1)C(C)C [Compound 4.46, N-isopropyl-N-[[5-[5-(trifluoromethyl)-1,2,4-oxadiazol-3-yl]-2-thienyl]methyl]propanamide]
≥ 80%: pest or weed control at 200 ppm [2] | pest or weed control at 200 ppm (Phakopsora pachyrhizi) | inhibition of growth at 20 ppm [3]

CC(=O)N(Cc1ccc(-c2noc(C(F)(F)F)n2)s1)C(C)C [Compound 4.51, N-isopropyl-N-[[5-[5-(trifluoromethyl)-1,2,4-oxadiazol-3-yl]-2-thienyl]methyl]acetamide]
≥ 80%: pest or weed control at 200 ppm [2] | pest or weed control at 200 ppm (Phakopsora pachyrhizi) | inhibition of growth at 20 ppm [3]

CCN(Cc1ccc(-c2noc(C(F)(F)F)n2)s1)C(=O)CC(F)(F)F [Compound 4.30, N-ethyl-3,3,3-trifluoro-N-[[5-[5-(trifluoromethyl)-1,2,4-oxadiazol-3-yl]-2-thienyl]methyl]propanamide]
≥ 80%: pest or weed control at 200 ppm [2] | pest or weed control at 200 ppm (Phakopsora pachyrhizi) | inhibition of growth at 20 ppm [3]
